Peptide text beside a SMILES is read from it.
What was measured:
Clytia MIHR [1] = test: GPCR deorphanization assay, luminescence response to peptides at 1 μM (CHO-K1 cells, Gα-16, GFP-apoaequorin); format: cell-based, Clytia hemisphaerica; conditions: peptide 1E-6M, normalised to Platynereis FLamide receptor + 1 μM AKYFL-NH2, n = 3
From the text: We used a cell culture–based GPCR deorphanization assay to identify the MIH receptor from our candidate shortlist. cDNAs for each candidate were transfected into Chinese Hamster ovary K1 (CHO-K1) cells along with the promiscuous Gα protein Gα-16, and an aequorin-GFP luminescence reporter that measures Ca^2+ mobilization downstream of this heterologous Gα protein [27, 28]. We first screened the 16 candidate Clytia GPCRs against a mixture of 33 synthetic amidated peptides (including MIHs) predicted to be generated from previously identified putative Clytia neuropeptide precursors and one additional one identified from transcriptome data. Given our imperfect knowledge of pro-peptide processing in cnidarians, some of the synthetic peptides may not correspond to endogenous peptides. Only one of the 16 GPCRs was activated by this peptide mixture. This receptor responded well to all 4 synthetic Clytia MIH tetrapeptides, as well as to related Cladonema MIH peptides that can also activate Clytia oocyte maturation, but not to other Clytia peptide mixtures or poorly active MIH penta-/tripeptides. We termed this Clytia GPCR the Maturation Inducing Hormone Receptor (MIHR). The activity of individual peptides at 1 μM to stimulate the MIHR closely matched their in vivo ability to induce oocyte maturation (Fig 1B).
(§1) Cell culture GPCR ligand response assays were performed as described. Briefly, CHO-K1 cells were cultured in Ham’s F12 Nut Mix medium (Thermo Fisher Scientific) with 10% foetal bovine serum. Cells were seeded in 96-well plates at approximately 10,000 cells/well and transfected the following day with pcDNA3.1(+) plasmids encoding each of the 16 candidate Clytia GPCRs (S2 Text), the promiscuous Gα-16 protein [65], and a reporter construct GFP-apoaequorin [66] (60 ng each) using the transfection reagent TurboFect (Thermo Fisher Scientific). After 2 days of expression, the medium was removed and replaced with Hank’s balanced salt solution (HBSS) supplemented with 1.8 mM Ca2+, 10 mM glucose, and […] coelenterazine h (Promega, Madison, WI). After incubation at 37 °C for 2 hours, cells were tested by adding synthetic peptides (GenScript) in HBSS supplemented with 1.8 mM Ca2^+ and 10 mM glucose. A list of all synthetic peptides used is provided in S2 Table. Luminescence was recorded for 45 seconds in a plate reader (BioTek Synergy Mx or Synergy H4; BioTek, Winooski, VT). Data were integrated over the 45-second measurement period and recorded as technical triplicates in each case. Data were normalized using the response of Platynereis FLamide receptor to 1 μM AKYFL-NH2 [28]. Dose–response curves were obtained using concentrations between 0.01 nM and 100 μM for each peptide. Data for dose–response curves were recorded in triplicate for each concentration and the experiment was repeated independently 3 times. Dose–response curves were fitted with a four-parameter curve using Prism 6 (GraphPad, La Jolla, CA) and were normalized to the calculated upper plateau values (100% activation).
Supplementary file pbio.3000614.s011.xlsx: S1 Data Numerical data corresponding to Fig 1B. Raw luminescence values obtained in triplicate for each of the neuropeptide combinations tested against the MIHR in the deorphanization assay are provided. In the right-hand table, the raw luminescence values obtained in quadruple for the positive and negative controls are provided. In the lower table, means and standard errors of the mean of the luminescence values obtained for each neuropeptide combination and controls are also shown, as well as the values normalized to the positive control, which were used to prepare the graph shown in Fig 1B. MIHR, MIH receptor. (XLSX) Click here for additional data file.

Clytia MIHR [2] = test: Dose–response curves of Clytia MIHR, luminescence (CHO-K1 cells, Gα-16, GFP-apoaequorin); format: cell-based, Clytia hemisphaerica; set-up: key to Span (best-fit value) / Bottom (best-fit value): % activation, normalized to fitted upper plateau (100%); conditions: for EC50: four-parameter fit, variable slope, triplicate; for HillSlope / LogEC50: best-fit value; for Bottom / Span / Top: best-fit value (luminescence)
Description: The Clytia MIH amidated peptides are produced from two precursor genes Che-pp4 (generating multiple copies of WPRAamide, WPRYamide, and WPRPamide) and Che-pp1 (multiple copies of WPRPamide and RPRGamide).
as §1
Supplementary file pbio.3000614.s012.xlsx: S2 Data Numerical data corresponding to Fig 1C. The first three tabs show statistical values obtained using Prism 6 software (GraphPad, La Jolla, CA) from the raw luminescence values for 3 independent dose–response experiments. The raw luminescence values are shown, as well as the values normalized with respect to the maximum. […] MIH, maturation-inducing hormone. (XLSX) Click here for additional data file.

[3] = tested on: wild-type (WT) isolated female gonads; test: Gonad spawning assay, wild-type isolated gonads; set-up: species or system Clytia hemisphaerica
Description: We performed a series of oocyte maturation and spawning assays, comparing the responses of wild-type and MIHR mutant isolated gonads and oocytes to different stimuli (Fig 4).
Sexually mature MIHR mutant medusae from colonies n5-13 and n5-23 and wild-type medusae were cultured on the same day–night cycle. Individual gonads were dissected in the evening after afternoon spawning. To test the light response, one group of each was transferred to 100 μL MFSW in wells of 96-well plastic plates, covered overnight, and re-exposed to white light the following day. To test responses to MIH and cAMP, other groups of dissected gonads were cultured overnight in constant light, then transferred to 96-well plastic plates for two hours. MIH was added to wells as an equal volume of 200 nM WPRPamide (GenScript) stock in MFSW was added to give a final concentration of 100 nM. Alternatively, a stock of 20 mM bromo adenosine 3′,5′cyclic monophosphate (Br-cAMP–Fluka; Sigma Aldrich) in distilled water was added to give a final concentration of 4 mM. Gonads were washed after 5 minutes incubation in Br-cAMP. Oocyte maturation was scored after 30 minutes as germinal vesicle breakdown (GVBD), i.e., visible dissolution of the oocyte nuclear membrane upon entry into M phase, which in all cases was followed by spawning about 1 hour later.
Supplementary file pbio.3000614.s013.xlsx: S3 Data Numerical data corresponding to Fig 4A and 4C. The first tab collects all the raw data from 3 independent gonad spawning assays. Information corresponding to the Fisher exact tests is also shown. […] The means and standard deviations were used to prepare the graph in Fig 4C. Information corresponding to the Fisher exact tests is also shown. (XLSX) Click here for additional data file.

[4] = log(agonist) vs. response, variable slope (four parameters), fit of third dataset
[5] = 0,1uM WPRPa, wild type, replicate 1, total 22
[6] = 0,1uM WPRPa, wild type, replicate 2, total 24
[7] = 0,1uM WPRPa, wild type, replicate 3, total 18
[8] = WPRPa, pooled n=64, Fisher exact test vs MIHR KO significant at p < .01

N=C(N)NCCC[C@H](NC(=O)[C@@H]1CCCN1C(=O)[C@@H](N)Cc1c[nH]c2ccccc12)C(=O)N1CCC[C@H]1C(N)=O [WPRPa] (H-WPRP-NH2; N-terminus assumed)
Normalised response (to positive control), mean (Clytia MIHR [1]): 0.381 | EC50 (Clytia MIHR [2]; dataset/experiment 1): 220 nM | EC50 (Clytia MIHR [2]; dataset/experiment 2): 928 nM | HillSlope (Clytia MIHR [2]; first dataset): 1.128 | LogEC50 (Clytia MIHR [2]; first dataset): -6.658 | Bottom (Clytia MIHR [2]; first dataset): 935 | Span (Clytia MIHR [2]; first dataset): 46105 | Top (Clytia MIHR [2]; first dataset): 47040 | Bottom (best-fit value) (Clytia MIHR [2]; [4]): 10.51 | HillSlope (best-fit value) (Clytia MIHR [2]; [4]): 1.078 | LogEC50 (best-fit value) (Clytia MIHR [2]; [4]): -6.286 | Span (best-fit value) (Clytia MIHR [2]; [4]): 89.49 | HillSlope (Clytia MIHR [2]; second dataset): 0.9926 | LogEC50 (Clytia MIHR [2]; second dataset): -6.033 | Bottom (Clytia MIHR [2]; second dataset): 1493 | Span (Clytia MIHR [2]; second dataset): 22106 | Top (Clytia MIHR [2]; second dataset): 23599 | Percentage of spawning gonads, Mean ([3]; 0,1uM WPRPa, wild type, mean of 3 replicates, Desvest 7.87296): 95.4545 | Gonads spawning (number) [3, 5]: 19 | Percentage of spawning gonads [3, 5]: 86.3636 | Gonads spawning (number) [3, 6]: 24 | Percentage of spawning gonads [3, 6]: 100 | Gonads spawning (number) [3, 7]: 18 | Percentage of spawning gonads [3, 7]: 100 | Non-spawning gonads, WT NO [3, 8]: 3 | Spawning gonads, WT YES [3, 8]: 61 | oocyte maturation and spawning of WT gonads ([3]; isolated WT gonads, 100 nM WPRPamide): underwent oocyte maturation and spawning

Reference: publication PMC7053711, “A G protein–coupled receptor mediates neuropeptide-induced oocyte maturation in the jellyfish Clytia” (PLoS Biology, 2020)
